1 molecule from patent publication US20190125785A1, “HYPOTHERMAL INHALATION GAS COMPOSITION” (MONATOMICS TECHNOLOGY, priority 2016, published 2019) can be followed below.

The nature of the test: rectal body temperature of rats after 3 hours in an enclosure supplied with a 22% oxygen / 78% helium, xenon or argon mixture at different temperatures. The format is in vivo, rat. As to conditions: comparison of FIGS. 1 and 2. An excerpt: The graph of FIG. 1, which represents the experimental body temperature data Tc collected on rats as a function of the inhalation temperature Ti of a helium-oxygen mixture (curve C1) or of a xenon-oxygen mixture (curve C2), makes it possible to determine the proportions of the gas composition to be complied with in order to obtain a hypothermal gas mixture, depending on the inhalation temperature. In a more detailed manner, curves C1 and C2 correspond to regression lines obtained based on said experimental data Pi, several examples of which have been plotted in FIG. 1.
The experimental data were obtained as follows: The rats were placed for 3 hours in a closed enclosure supplied with a continuous flow of a gas mixture containing 22% oxygen (O2) and 78% helium, xenon or argon (He, Xe or Ar). This gas mixture was administered at different temperatures. The flow of the gas mixture was 10 mL/min and made it possible to maintain the carbon dioxide (CO2) concentration below 0.03% and the humidity at around 60% to 70%. […] At the end of the 3 hours of exposure, the rectal body temperature of the rats was measured for each administration temperature.
The inhalation temperature Ti can be between 16° C. and 27° C., for example.

On to `[Ar]` [Argon (Ar), Argon], for which the “hypothermal properties (slope of curve C3 compared with curve C2)” value is listed as “lower hyperthermal properties than xenon”.
